Measured values reported in US20060159732A1, “Antioxidant wound dressing materials” (priority 2003, published 2006).

Legend:
[1] = DPPH test (Procedure 1), free radical / antioxidant activity; conditions: positive control at 10^-4M; percentage reduction of absorbance at 524 nm relative to the control after 4 hours
Description: Preferably, the material according to the present invention has a free radical activity, that is to say an antioxidant activity, of at least about 15% in the diphenylpicrylhydrazyl (DPPH) test, measured as percentage reduction in absorbance at 524 nm after 4 hours of a 0.5% w/v dispersion of the polysaccharide in 10^−4M DPPH, as described further hereinbelow in Procedure 1. Preferably the percentage reduction in absorbance in the DPPH test (after correction for any absorbance by the dye) is at least about 25%, more preferably at least about 50%, and most preferably at least about 75%.
The ability of the wound dressing materials to react with and remove oxygen containing free radicals is assessed by the DPPH test described in WO94/13333, the entire content of which is expressly incorporated herein by reference. […]
Briefly, the wound dressing material under test (2.5 mg; 5 mg; & 25 mg sample sizes) was suspended in 2.5 ml of 0.1M pH 7.0 phosphate buffer. […] The samples were assessed by measurement of their light absorbance at 524 nm over 6 hours in comparison with a control, particular attention being paid to the figure after 4 hours. The percentage reduction of absorbance relative to the control after 4 hours gives the DPPH test value, with a reproducibility generally of ±5%. […]

[2] = test system: Staphylococcus aureus; assay: Zone of inhibition test (Procedure 2) on Staphylococcus aureus; type: cell-based; conditions: DSA plates, 37° C., every 24 hours over the test period (72 hours)
Description: (§1) Six 2 cm×2 cm squares of each sample are cut out in sterile conditions. On day one of the experiment, cultures of both Pseudomonas aeruginosa (ATCC 27853 and various PSI strains) and Staphylococcus aureus (provided by the Dept of Clinical Microbiology and Pathology) are incubated aerobically at 37° C. for 24 hours on Diagnostic Sensitivity Agar (DSA). After 24 hours test samples are each placed on a DSA plate and immediately wetted with 0.5 mls of a buffer solution. Three squares of sample are placed on plates inoculated with Pseudomonas aeruginosa and three are placed on plates inoculated with Staphylococcus aureus. The plates are then incubated at 37° C. for 24 hours. The zone of inhibited growth around the sample is then measured using calipers, and the test sample is placed on a new inoculated DSA plate. A swab test is carried out on the area beneath the sample to determine if the sample is bacteriostatic if not bactericidal by smearing the swab on a DSA plate and incubating it for 24 hours and then examining the growth.

[3] = test system: Pseudomonas aeruginosa (ATCC 27853 and various PSI strains); assay: Zone of inhibition test (Procedure 2) on Pseudomonas aeruginosa; type: cell-based; conditions: DSA plates, 37° C., every 24 hours over the test period (72 hours)
Description: as §1

Compound	DPPH test value [1]	zone of inhibition [2]	zone of inhibition [3]
O=C1O[C@H]([C@@H](O)CO)C(O)=C1O [positive control, Ascorbic acid]	80-90%	–	–
O=[N+]([O-])[O-].[Ag+] [silver nitrate solution (0.5%), silver nitrate]	–	zones of inhibition were observed	zones of inhibition were observed
